Measured values published in the kinase profiling compilation of Christmann-Franck et al. (2016).

Columns and labels:
Experiment in all cases: KINOMEscan competition binding
Settings in all cases: compound 10.0 µM
MAP2K6 (human) = MAP2K6 (human) (UniProt P52564)
NTRK2 (human) = NTRK2 (human) (UniProt Q16620)
RPS6KA1 KD2 (human) = RPS6KA1 KD2 (human) (UniProt Q15418)
DAPK1 (human) = DAPK1 (human) (UniProt P53355)
PI4KB (human) = PI4KB (human) (UniProt Q9UBF8)
PDGFRA (human) = PDGFRA (human) (UniProt P16234)
[1] = test system: KIT (human), P10721 [L576P]
SYK (human) = SYK (human) (UniProt P43405)
MAST1 (human) = MAST1 (human) (UniProt Q9Y2H9)
TRPM6 (human) = TRPM6 (human) (UniProt Q9BX84)
DCLK2 (human) = DCLK2 (human) (UniProt Q8N568)
TAOK3 (human) = TAOK3 (human) (UniProt Q9H2K8)
DCLK1 (human) = DCLK1 (human) (UniProt O15075)
CHUK (human) = CHUK (human) (UniProt O15111)
MAPK10 (human) = MAPK10 (human) (UniProt P53779)
MINK1 (human) = MINK1 (human) (UniProt Q8N4C8)
STK24 (human) = STK24 (human) (UniProt Q9Y6E0)
CDK15 (human) = CDK15 (human) (UniProt Q96Q40)
MAP3K7 (human) = MAP3K7 (human) (UniProt O43318)
CDK14 (human) = CDK14 (human) (UniProt O94921)
[2] = test system: FLT3 (human), P36888 [K663Q]
BTK (human) = BTK (human) (UniProt Q06187)
MERTK (human) = MERTK (human) (UniProt Q12866)
PRKAA2 (human) = PRKAA2 (human) (UniProt P54646)
CDKL1 (human) = CDKL1 (human) (UniProt Q00532)
PRKCI (human) = PRKCI (human) (UniProt P41743)
EPHA7 (human) = EPHA7 (human) (UniProt Q15375)
[3] = test system: KIT (human), P10721 [V559D]
ACVRL1 (human) = ACVRL1 (human) (UniProt P37023)
STK17A (human) = STK17A (human) (UniProt Q9UEE5)
WEE1 (human) = WEE1 (human) (UniProt P30291)
FGFR1 (human) = FGFR1 (human) (UniProt P11362)
YSK4 (human) = YSK4 (human) (UniProt Q56UN5)
EPHA8 (human) = EPHA8 (human) (UniProt P29322)
[4] = test system: EGFR (human), P00533 [A750P; 747-749 del]
[5] = biological target: JAK1 JH1 catalytic (human) (UniProt P23458)
PIM3 (human) = PIM3 (human) (UniProt Q86V86)
STK3 (human) = STK3 (human) (UniProt Q13188)
[6] = test system: EGFR (human), P00533 [752-759 del]
[7] = test system: EGFR (human), P00533 [T790M]
MAP3K9 (human) = MAP3K9 (human) (UniProt P80192)

Sequence of DCLK2 (human) (Q8N568 whole entry, looked up): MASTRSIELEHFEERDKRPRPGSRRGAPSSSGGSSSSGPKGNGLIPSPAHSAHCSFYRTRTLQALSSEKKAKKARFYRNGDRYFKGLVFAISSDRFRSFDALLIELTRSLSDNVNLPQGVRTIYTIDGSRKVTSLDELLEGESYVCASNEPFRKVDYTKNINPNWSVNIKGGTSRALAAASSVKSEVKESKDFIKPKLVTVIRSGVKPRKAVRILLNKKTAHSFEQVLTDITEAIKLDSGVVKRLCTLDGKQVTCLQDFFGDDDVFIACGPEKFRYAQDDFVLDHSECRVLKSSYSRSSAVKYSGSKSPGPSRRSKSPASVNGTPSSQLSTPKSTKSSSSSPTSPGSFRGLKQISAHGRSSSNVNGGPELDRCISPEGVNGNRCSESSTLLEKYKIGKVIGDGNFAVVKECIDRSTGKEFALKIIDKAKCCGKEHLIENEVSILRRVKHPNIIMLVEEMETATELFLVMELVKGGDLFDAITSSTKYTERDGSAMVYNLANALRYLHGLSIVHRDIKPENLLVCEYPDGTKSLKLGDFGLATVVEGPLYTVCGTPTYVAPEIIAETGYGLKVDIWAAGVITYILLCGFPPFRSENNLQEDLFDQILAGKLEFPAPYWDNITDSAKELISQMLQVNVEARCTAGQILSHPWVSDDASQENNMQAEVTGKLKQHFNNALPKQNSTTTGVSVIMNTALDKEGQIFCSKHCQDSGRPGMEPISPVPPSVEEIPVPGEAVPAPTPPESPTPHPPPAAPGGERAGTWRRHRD
Sequence of PI4KB (human) (Q9UBF8 whole entry, looked up): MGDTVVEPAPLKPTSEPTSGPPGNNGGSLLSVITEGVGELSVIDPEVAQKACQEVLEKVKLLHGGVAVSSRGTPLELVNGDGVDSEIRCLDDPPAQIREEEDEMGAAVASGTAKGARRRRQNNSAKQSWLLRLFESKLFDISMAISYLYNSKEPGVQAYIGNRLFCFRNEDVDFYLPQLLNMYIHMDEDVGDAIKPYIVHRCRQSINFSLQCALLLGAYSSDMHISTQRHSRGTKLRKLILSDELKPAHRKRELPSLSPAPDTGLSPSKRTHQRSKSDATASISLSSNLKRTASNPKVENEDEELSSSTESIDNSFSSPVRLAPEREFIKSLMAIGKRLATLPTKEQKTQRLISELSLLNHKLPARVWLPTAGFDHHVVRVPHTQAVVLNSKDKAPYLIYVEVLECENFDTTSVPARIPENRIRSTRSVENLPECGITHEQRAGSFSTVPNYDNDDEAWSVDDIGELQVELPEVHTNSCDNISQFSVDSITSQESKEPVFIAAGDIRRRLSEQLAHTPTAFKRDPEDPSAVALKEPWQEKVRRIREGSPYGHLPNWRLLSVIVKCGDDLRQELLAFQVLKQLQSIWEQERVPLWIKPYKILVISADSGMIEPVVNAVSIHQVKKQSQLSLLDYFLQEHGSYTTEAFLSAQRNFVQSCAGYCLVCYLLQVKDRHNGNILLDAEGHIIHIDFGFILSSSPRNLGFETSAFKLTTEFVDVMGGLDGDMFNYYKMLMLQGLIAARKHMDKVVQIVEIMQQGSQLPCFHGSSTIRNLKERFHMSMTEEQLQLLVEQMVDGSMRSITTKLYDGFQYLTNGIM
Sequence of KIT (human), P10721 [V559D] (P10721 whole entry V559D, looked up): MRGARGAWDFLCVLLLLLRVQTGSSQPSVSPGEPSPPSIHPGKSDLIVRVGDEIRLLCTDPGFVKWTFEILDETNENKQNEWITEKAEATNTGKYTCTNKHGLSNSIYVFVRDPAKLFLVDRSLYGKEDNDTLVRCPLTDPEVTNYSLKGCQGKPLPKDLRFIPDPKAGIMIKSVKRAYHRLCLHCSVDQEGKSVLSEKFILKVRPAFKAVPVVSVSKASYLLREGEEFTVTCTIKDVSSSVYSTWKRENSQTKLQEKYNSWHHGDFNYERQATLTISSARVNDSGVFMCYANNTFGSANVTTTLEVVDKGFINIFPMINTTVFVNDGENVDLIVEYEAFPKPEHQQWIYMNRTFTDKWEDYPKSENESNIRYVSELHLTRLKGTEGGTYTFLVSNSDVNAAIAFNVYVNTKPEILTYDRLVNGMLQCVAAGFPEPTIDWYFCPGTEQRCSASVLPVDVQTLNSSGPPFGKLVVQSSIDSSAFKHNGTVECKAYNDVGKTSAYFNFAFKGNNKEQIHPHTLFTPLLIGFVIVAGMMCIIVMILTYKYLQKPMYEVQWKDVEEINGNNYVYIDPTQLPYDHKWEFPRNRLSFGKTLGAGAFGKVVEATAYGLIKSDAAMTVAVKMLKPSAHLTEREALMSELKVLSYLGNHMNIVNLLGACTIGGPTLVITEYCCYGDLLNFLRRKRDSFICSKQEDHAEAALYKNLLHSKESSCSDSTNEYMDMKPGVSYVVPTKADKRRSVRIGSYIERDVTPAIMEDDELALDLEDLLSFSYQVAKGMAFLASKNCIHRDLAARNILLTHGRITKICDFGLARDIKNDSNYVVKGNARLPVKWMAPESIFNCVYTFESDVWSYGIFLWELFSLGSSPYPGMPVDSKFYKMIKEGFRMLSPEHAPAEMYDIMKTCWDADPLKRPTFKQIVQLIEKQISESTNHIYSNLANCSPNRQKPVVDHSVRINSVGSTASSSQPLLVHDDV
Sequence of MAP2K6 (human) (P52564 whole entry, looked up): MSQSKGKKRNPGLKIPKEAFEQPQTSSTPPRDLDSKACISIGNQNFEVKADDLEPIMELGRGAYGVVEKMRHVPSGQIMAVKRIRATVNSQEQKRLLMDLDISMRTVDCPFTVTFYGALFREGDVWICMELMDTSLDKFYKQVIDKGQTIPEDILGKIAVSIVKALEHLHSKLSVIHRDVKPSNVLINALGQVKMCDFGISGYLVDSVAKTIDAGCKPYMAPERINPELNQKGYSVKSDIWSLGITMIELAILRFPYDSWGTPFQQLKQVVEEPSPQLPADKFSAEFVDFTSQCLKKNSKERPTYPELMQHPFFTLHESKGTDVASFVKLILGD
Sequence of NTRK2 (human) (Q16620 whole entry, looked up): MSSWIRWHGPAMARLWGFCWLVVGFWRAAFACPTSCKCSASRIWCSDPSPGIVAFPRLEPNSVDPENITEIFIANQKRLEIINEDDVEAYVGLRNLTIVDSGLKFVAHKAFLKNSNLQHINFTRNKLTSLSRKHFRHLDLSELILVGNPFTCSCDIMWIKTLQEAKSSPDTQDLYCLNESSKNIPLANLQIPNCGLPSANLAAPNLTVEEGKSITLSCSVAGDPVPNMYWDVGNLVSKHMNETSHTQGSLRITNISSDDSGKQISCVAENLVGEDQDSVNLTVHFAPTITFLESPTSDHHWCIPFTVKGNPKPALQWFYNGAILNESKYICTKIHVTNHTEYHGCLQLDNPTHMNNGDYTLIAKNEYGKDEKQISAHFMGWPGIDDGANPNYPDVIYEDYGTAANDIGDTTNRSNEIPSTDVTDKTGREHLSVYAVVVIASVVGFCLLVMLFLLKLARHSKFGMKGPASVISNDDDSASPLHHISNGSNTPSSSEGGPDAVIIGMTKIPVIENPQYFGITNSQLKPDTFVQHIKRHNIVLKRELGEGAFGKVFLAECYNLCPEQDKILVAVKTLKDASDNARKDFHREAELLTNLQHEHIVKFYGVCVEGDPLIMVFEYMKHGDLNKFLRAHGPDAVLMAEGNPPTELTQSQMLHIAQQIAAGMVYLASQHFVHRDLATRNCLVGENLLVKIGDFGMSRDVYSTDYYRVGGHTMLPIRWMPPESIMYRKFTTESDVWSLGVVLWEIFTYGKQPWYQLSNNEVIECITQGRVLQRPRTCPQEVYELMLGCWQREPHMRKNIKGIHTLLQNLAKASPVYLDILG
Sequence of PRKAA2 (human) (P54646 whole entry, looked up): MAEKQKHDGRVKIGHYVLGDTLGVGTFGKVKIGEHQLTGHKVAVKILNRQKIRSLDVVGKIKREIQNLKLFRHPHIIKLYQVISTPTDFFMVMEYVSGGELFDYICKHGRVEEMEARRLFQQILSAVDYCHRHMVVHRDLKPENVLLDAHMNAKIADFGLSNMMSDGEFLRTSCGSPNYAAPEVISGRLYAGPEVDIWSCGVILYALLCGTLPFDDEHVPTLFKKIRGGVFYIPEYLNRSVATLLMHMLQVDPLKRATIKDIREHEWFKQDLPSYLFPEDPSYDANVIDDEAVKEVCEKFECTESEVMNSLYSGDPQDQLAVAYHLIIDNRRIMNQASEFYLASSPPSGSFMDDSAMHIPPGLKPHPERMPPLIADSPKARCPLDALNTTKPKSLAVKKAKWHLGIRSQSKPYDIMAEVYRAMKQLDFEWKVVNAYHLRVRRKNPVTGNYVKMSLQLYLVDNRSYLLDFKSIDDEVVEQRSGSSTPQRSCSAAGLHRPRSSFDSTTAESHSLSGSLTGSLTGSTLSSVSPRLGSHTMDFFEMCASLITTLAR
Sequence of STK3 (human) (Q13188 whole entry, looked up): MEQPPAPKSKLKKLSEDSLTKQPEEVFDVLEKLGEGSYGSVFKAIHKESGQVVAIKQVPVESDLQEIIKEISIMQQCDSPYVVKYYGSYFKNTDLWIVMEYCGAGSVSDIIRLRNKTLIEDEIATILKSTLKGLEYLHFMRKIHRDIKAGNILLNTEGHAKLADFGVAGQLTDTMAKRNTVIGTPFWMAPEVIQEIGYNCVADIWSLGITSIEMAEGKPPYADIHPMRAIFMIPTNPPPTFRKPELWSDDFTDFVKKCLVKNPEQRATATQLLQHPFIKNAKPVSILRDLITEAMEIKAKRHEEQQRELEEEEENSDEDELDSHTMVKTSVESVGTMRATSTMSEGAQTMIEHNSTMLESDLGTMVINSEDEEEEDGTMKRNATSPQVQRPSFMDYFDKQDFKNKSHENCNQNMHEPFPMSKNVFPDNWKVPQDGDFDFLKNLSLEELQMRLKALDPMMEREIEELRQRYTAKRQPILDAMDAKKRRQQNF
Sequence of KIT (human), P10721 [L576P] (P10721 whole entry L576P, looked up): as the sequence (P10721 whole entry V559D, looked up) above, with D559V, L576P counted along it

For `COC(=O)Nc1ccc(-c2nc(N3CCOCC3)c3cnn(C4CCN(C(=O)OC)CC4)c3n2)cc1`, the kinase still bound, per cent of control (MAP2K6 (human)) was 90%, the kinase still bound, per cent of control (NTRK2 (human)) was 100% and the kinase still bound, per cent of control (RPS6KA1 KD2 (human)) was 100%. It also gave a kinase still bound, per cent of control (DAPK1 (human)) of 100%, a kinase still bound, per cent of control (PI4KB (human)) of 100% and a kinase still bound, per cent of control (PDGFRA (human)) of 92%. It also gave a kinase still bound, per cent of control [1] of 100%, a kinase still bound, per cent of control (SYK (human)) of 83% and a kinase still bound, per cent of control (MAST1 (human)) of 81%. It also gave a kinase still bound, per cent of control (TRPM6 (human)) of 100%, a kinase still bound, per cent of control (DCLK2 (human)) of 95% and a kinase still bound, per cent of control (TAOK3 (human)) of 94%. For the same compound, the kinase still bound, per cent of control (DCLK1 (human)) was 93%, the kinase still bound, per cent of control (CHUK (human)) was 63% and the kinase still bound, per cent of control (MAPK10 (human)) was 100%. The kinase still bound, per cent of control (MINK1 (human)) was 100%, the kinase still bound, per cent of control (STK24 (human)) was 100% and the per cent of control (CDK15 (human)) was 100%. It also gave a kinase still bound, per cent of control (MAP3K7 (human)) of 70%, a per cent of control (CDK14 (human)) of 100% and a kinase still bound, per cent of control [2] of 93%. The kinase still bound, per cent of control (BTK (human)) was 99%, the kinase still bound, per cent of control (MERTK (human)) was 100% and the kinase still bound, per cent of control (PRKAA2 (human)) was 100%. For the same compound, the per cent of control (CDKL1 (human)) was 91%, the kinase still bound, per cent of control (PRKCI (human)) was 100% and the kinase still bound, per cent of control (EPHA7 (human)) was 94%. It also gave a kinase still bound, per cent of control [3] of 96%, a kinase still bound, per cent of control (ACVRL1 (human)) of 100% and a kinase still bound, per cent of control (STK17A (human)) of 91%. For the same compound, the kinase still bound, per cent of control (WEE1 (human)) was 100%, the kinase still bound, per cent of control (FGFR1 (human)) was 100% and the kinase still bound, per cent of control (YSK4 (human)) was 75%. It also gave a kinase still bound, per cent of control (EPHA8 (human)) of 97%, a kinase still bound, per cent of control [4] of 88% and a kinase still bound, per cent of control [5] of 100%. For the same compound, the kinase still bound, per cent of control (PIM3 (human)) was 100%, the kinase still bound, per cent of control (STK3 (human)) was 85% and the kinase still bound, per cent of control [6] was 100%. It also gave a kinase still bound, per cent of control [7] of 100% and a kinase still bound, per cent of control (MAP3K9 (human)) of 100%.
